# From US20260347353A1, “INDOLIZINE DERIVATIVES FOR TREATING CANCER” (Antares Therapeutics, Inc., priority 2022, published 2026)
# Tests used:
# [1] = test system: NUGC3 cells (p53 Y220C); assay: Cell Proliferation Assay (CellTiter-Glo), NUGC3 p53 Y220C; assay type: cell-based; settings: Homo sapiens, NUGC-3, 120 h, 5 days, read-out: CTG NUGC3 P53 Y220C IC50
# Description: (§1) Inducible p53 Y220C and R273H constructs (Tet-One inducible expression system; Takara) were stably expressed in NCIH1299 cells by lentiviral transduction. NUGC3, A549, BxPC3, T3M4, HuH7, HCC2935, MFE296, NCIH1299, NCIH1299-inducible p53 Y220C, and NCIH1299-inducible p53 R273H cell lines were used for cell proliferation assay. 250-500 cells were seeded in each well of 384 plate and then compounds were dispensed into each well using Echo or Tecan. After 5 days of incubation, equal volume of CellTiter-Glo reagent (G7570; Promega) was added into each well and the plate was incubated at room temperature for 10 minutes with shaking. The luminescent signal was measured by PheraStar microplate reader and IC50 was calculated.
# [2] = biological target: T1, p53 Y220C mutant protein (amino acid residues 94-293) (Homo sapiens, UniProt P04637, Y220C); assay: Surface Plasmon Resonance (SPR) assay, p53 Y220C Kd_kinetic; settings: multi-cycle kinetics, 16 or 20 °C, pH 7.5, 1:1 binding model
# T1 construct: p53 Y220C mutant protein (amino acid residues 94-293)
# Description: SPR experiments are performed on a Biacore 8K instrument. […] Compounds are 2-fold, 7-point serial diluted; the top concentration varies depending on the potency. Compound binding affinities are measured in the multi-cycle kinetics mode, at 30 μL/min flow rate with 60 seconds association time and 120 seconds dissociation time. The running buffer contains 50 mM Tris, pH 7.5, 100 mM NaCl, 1 mM DTT, 0.01% Brij35, 0.05% Tween-20 and 1% DMSO. The assay temperature is maintained at 16 or 20 °C and data are fit into the 1:1 binding model using the Biacore Insight Evaluation software.
# [3] = biological target: p53 Y220C (Homo sapiens, UniProt P04637, Y220C); assay: Luciferase Reporter Assay, p53 Y220C (NCIH1299 cells with inducible p53 Y220C and p53 response element-luciferase); assay type: cell-based; settings: 6 hour compound treatment, read-out: Luc P53 Y220C AC50
# Description: Luciferase reporter (Luc) driven by p53 response element (LTV-p53-Luc (SKU #: LTLR007); G&P Biosciences) and inducible p53 Y220C construct (Tet-One inducible expression system; Takara) were stably expressed in NCIH1299 cells by lentiviral transduction. The cells were then used for p53 reporter assay. 5,000 cells were seeded in each well of 384 plate and cultured in 0.5 ug/mL doxycycline (D3072; Sigma) containing medium for 24 hours before compound treatment. After 6 hour of compound treatment, equal volume of One-Glo reagent (E6110; Promega) was added to each well and the plate was incubated for 5 minutes with shaking at room temperature. The luciferase activity was immediately measured with PheraStar microplate reader. Luciferase activity was stimulated by 10 uM of a tool compound as positive control and AC50 was calculated.
# [4] = test system: NCIH1299-inducible p53 Y220C cells; assay: Cell Proliferation Assay (CellTiter-Glo), NCIH1299-inducible p53 Y220C; assay type: cell-based; settings: Homo sapiens, NCI-H1299, 120 h, 5 days, read-out: CTG H1299 P53 Y220C IC50
# Description: as §1
# T1 sequence (P04637 94-293, stated change not applied): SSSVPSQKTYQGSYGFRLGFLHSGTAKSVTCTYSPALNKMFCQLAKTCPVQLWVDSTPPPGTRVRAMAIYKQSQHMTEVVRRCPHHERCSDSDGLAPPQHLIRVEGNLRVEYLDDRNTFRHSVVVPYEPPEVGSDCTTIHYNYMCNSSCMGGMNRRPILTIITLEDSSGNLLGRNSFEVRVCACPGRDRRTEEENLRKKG
SMILES,IC50 [1] [nM],Kd [2] [nM],AC50 [3] [nM],IC50 [4] [nM]
"CN1CC[C@@H](Nc2cccn3c(SC(F)(F)F)c(-c4noc(CNC(=O)[C@H]5C[C@@H](O)C5)n4)cc23)[C@@H](F)C1 [Example 62, (1s,3s)-N-{[3-(8-{[(3S,4R)-3-fluoro-1-methylpiperidin-4-yl]amino}-3-[(trifluoromethyl)sulfanyl]indolizin-2-yl)-1,2,4-oxadiazol-5-yl]methyl}-3-hydroxycyclobutane-1-carboxamide]",1500 to 3000,< 10,1500 to 3000,750 to 1500
"CN1CC[C@@H](Nc2cccn3c(SC(F)(F)F)c(-c4noc(CNC(=O)c5cnc(C(C)(C)C)o5)n4)cc23)[C@@H](F)C1 [Example 13, 2-tert-butyl-N-{[3-(8-{[(3S,4R)-3-fluoro-1-methylpiperidin-4-yl]amino}-3-[(trifluoromethyl)sulfanyl]indolizin-2-yl)-1,2,4-oxadiazol-5-yl]methyl}-1,3-oxazole-5-carboxamide]",< 750,< 10,< 750,< 750
"CN1CC[C@@H](Nc2cccn3c(SC(F)(F)F)c(-c4noc(CNC(=O)c5cc(C#N)cs5)n4)cc23)[C@@H](F)C1 [Example 38, 4-cyano-N-{[3-(8-{[(3S,4R)-3-fluoro-1-methylpiperidin-4-yl]amino}-3-[(trifluoromethyl)sulfanyl]indolizin-2-yl)-1,2,4-oxadiazol-5-yl]methyl}thiophene-2-carboxamide]",< 750,10 to 100,750 to 1500,< 750
"CNC(=O)c1ccc(NCc2nc(-c3cc4c(N[C@@H]5CCN(C)C[C@@H]5F)cccn4c3SC(F)(F)F)no2)nc1 [Example 54, 6-({[3-(8-{[(3S,4R)-3-fluoro-1-methylpiperidin-4-yl]amino}-3-[(trifluoromethyl)sulfanyl]indolizin-2-yl)-1,2,4-oxadiazol-5-yl]methyl}amino)-N-methylpyridine-3-carboxamide]",< 750,< 10,< 750,< 750
"CN1CC[C@@H](Nc2cccn3c(SC(F)(F)F)c(-c4noc(CNC(=O)C5(F)CCOCC5)n4)cc23)[C@@H](F)C1 [Example 36, 4-fluoro-N-{[3-(8-{[(3S,4R)-3-fluoro-1-methylpiperidin-4-yl]amino}-3-[(trifluoromethyl)sulfanyl]indolizin-2-yl)-1,2,4-oxadiazol-5-yl]methyl}oxane-4-carboxamide]",1500 to 3000,10 to 100,1500 to 3000,1500 to 3000
"CN1CC[C@@H](Nc2cccn3c(SC(F)(F)F)c(-c4noc(CNC(=O)C5COC5)n4)cc23)[C@@H](F)C1 [Example 25, N-{[3-(8-{[(3S,4R)-3-fluoro-1-methylpiperidin-4-yl]amino}-3-[(trifluoromethyl)sulfanyl]indolizin-2-yl)-1,2,4-oxadiazol-5-yl]methyl}oxetane-3-carboxamide]",1500 to 3000,< 10,1500 to 3000,1500 to 3000
"C[C@@H](NC(=O)C1CC1)c1nc(-c2cc3c(N[C@@H]4CCN(C)C[C@@H]4F)cccn3c2SC(F)(F)F)no1 (relative stereo) [Example 51, N-[(1R*)-1-[3-(8-{[(3S,4R)-3-fluoro-1-methylpiperidin-4-yl]amino}-3-[(trifluoromethyl)sulfanyl]indolizin-2-yl)-1,2,4-oxadiazol-5-yl]ethyl]cyclopropanecarboxamide]",≥ 3000,10 to 100,≥ 3000,≥ 3000
"CN1CC[C@@H](Nc2cccn3c(SC(F)(F)F)c(-c4noc(CNC(=O)c5ccc6ncsc6c5)n4)cc23)[C@@H](F)C1 [Example 40, N-{[3-(8-{[(3S,4R)-3-fluoro-1-methylpiperidin-4-yl]amino}-3-[(trifluoromethyl)sulfanyl]indolizin-2-yl)-1,2,4-oxadiazol-5-yl]methyl}-1,3-benzothiazole-6-carboxamide]",< 750,10 to 100,< 750,< 750
"CNC(=O)c1ccc(C(=O)NCc2nc(-c3cc4c(N[C@@H]5CCN(C)C[C@@H]5F)cccn4c3SC(F)(F)F)no2)cc1 [Example 57, N1—{[3-(8-{[(3S,4R)-3-fluoro-1-methylpiperidin-4-yl]amino}-3-[(trifluoromethyl)sulfanyl]indolizin-2-yl)-1,2,4-oxadiazol-5-yl]methyl}-N4-methylbenzene-1,4-dicarboxamide]",< 750,< 10,< 750,< 750
"COC(C)(C)C(=O)NCc1nc(-c2cc3c(N[C@@H]4CCN(C)C[C@@H]4F)cccn3c2SC(F)(F)F)no1 [Example 61, N-{[3-(8-{[(3S,4R)-3-fluoro-1-methylpiperidin-4-yl]amino}-3-[(trifluoromethyl)sulfanyl]indolizin-2-yl)-1,2,4-oxadiazol-5-yl]methyl}-2-methoxy-2-methylpropanamide]",≥ 3000,10 to 100,≥ 3000,≥ 3000
"CN1CC[C@@H](Nc2cccn3c(SC(F)(F)F)c(-c4noc(CNC(=O)c5ccc6c(c5)NC(=O)C6)n4)cc23)[C@@H](F)C1 [Example 16, N-{[3-(8-{[(3S,4R)-3-fluoro-1-methylpiperidin-4-yl]amino}-3-[(trifluoromethyl)sulfanyl]indolizin-2-yl)-1,2,4-oxadiazol-5-yl]methyl}-2-oxo-1,3-dihydroindole-6-carboxamide]",< 750,< 10,750 to 1500,750 to 1500
"CN1CC[C@@H](Nc2cccn3c(SC(F)(F)F)c(-c4nsc(CNC(=O)C5CC5)n4)cc23)[C@@H](F)C1 [Example 4, N-{[3-(8-{[(3S,4R)-3-fluoro-1-methylpiperidin-4-yl]amino}-3-[(trifluoromethyl)sulfanyl]indolizin-2-yl)-1,2,4-thiadiazol-5-yl]methyl}cyclopropanecarboxamide]",≥ 3000,10 to 100,≥ 3000,≥ 3000
"CN1CC[C@@H](Nc2cccn3c(SC(F)(F)F)c(-c4noc(CNC(=O)c5ccc(S(C)(=O)=O)cc5)n4)cc23)[C@@H](F)C1 [Example 42, N-{[3-(8-{[(3S,4R)-3-fluoro-1-methylpiperidin-4-yl]amino}-3-[(trifluoromethyl)sulfanyl]indolizin-2-yl)-1,2,4-oxadiazol-5-yl]methyl}-4-methanesulfonylbenzamide]",< 750,< 10,< 750,< 750
"CN1CC[C@@H](Nc2cccn3c(SC(F)(F)F)c(-c4noc(CNC(=O)C5(C#N)CC5)n4)cc23)[C@@H](F)C1 [Example 28, 1-cyano-N-{[3-(8-{[(3S,4R)-3-fluoro-1-methylpiperidin-4-yl]amino}-3-[(trifluoromethyl)sulfanyl]indolizin-2-yl)-1,2,4-oxadiazol-5-yl]methyl}cyclopropane-1-carboxamide]",< 750,–,< 750,< 750
"CN1CC[C@@H](Nc2cccn3c(SC(F)(F)F)c(-c4noc(CNC(=O)C5CC(F)(F)C5)n4)cc23)[C@@H](F)C1 [Example 10, 3,3-difluoro-N-{[3-(8-{[(3S,4R)-3-fluoro-1-methylpiperidin-4-yl]amino}-3-[(trifluoromethyl)sulfanyl]indolizin-2-yl)-1,2,4-oxadiazol-5-yl]methyl}cyclobutane-1-carboxamide]",≥ 3000,–,1500 to 3000,≥ 3000
"CN1CC[C@@H](Nc2cccn3c(SC(F)(F)F)c(-c4noc(CNC(=O)C5(NC(=O)OC(C)(C)C)CC5)n4)cc23)[C@@H](F)C1 [Example 22, tert-butyl N-[1-({[3-(8-{[(3S,4R)-3-fluoro-1-methylpiperidin-4-yl]amino}-3-[(trifluoromethyl)sulfanyl]indolizin-2-yl)-1,2,4-oxadiazol-5-yl]methyl}carbamoyl)cyclopropyl]carbamate]",1500 to 3000,–,≥ 3000,≥ 3000
